From patent publication US9060511B2, “Compositions of dibromomalanomide and their use as biocides” (Rohm and Haas Company, priority 2010, dated 2015)

Experiments:
[1] = test system: consortium of bacteria: mixture of Pseudomonas aeruginosa, Klebsiella pneumoniae, Staphylococcus aureus, and Bacillus subtilis; experiment: Growth inhibition assay (microtiter plate-based synergy assay); format: cell-based; conditions: for I90 (concentration required for at least 90% inhibition of growth): Example 2; for I90 (concentration required for at least 90% inhibition of growth) / I90 (concentration required to inhibit at least 90% of bacterial growth when used alone): active alone, 37° C., 24 hr; for % Inhibition of Growth: Example 3
From the text: (§1) The results provided in the Examples are generated using a growth inhibition assay. Details of each assay are provided below.
(§2) Growth Inhibition Assay. The growth inhibition assay used in the Examples measures inhibition of growth (or lack thereof) of a microbial consortium Inhibition of growth can be the result of killing of the cells (so no growth occurs), killing of a significant portion of the populations of cells so that regrowth requires a prolonged time, or inhibition of growth without killing (stasis). Regardless of the mechanism of action, the impact of a biocide (or combination of biocides) can be measured over time on the basis of an increase in the size of the community.
(§3) The assay measures the efficacy of one or more biocides at preventing growth of a consortium of bacteria in a dilute mineral salts medium. The medium contains (in mg/l) the following components: FeCl3.6H2O (1); CaCl2.2H2O (10); MgSO4.7H2O (22.5); (NH4)2SO4 (40); KH2PO4 (10); K2HPO4 (25.5); Yeast Extract (10); and glucose (100). After all components are added to deionized water, the pH of the medium is adjusted to 7.5. Following filter sterilization, aliquots are dispensed in 100 μl quantities to sterile microtiter plate wells. Dilutions of 2,2-dibromomalonamide (“DBMAL”) and/or “Biocide B” are then added to the microtiter plate. After preparing the combinations of actives as illustrated below, each well is inoculated with 100 μl of a cell suspension containing ca. 1×10^6 cells per milliliter of a mixture of Pseudomonas aeruginosa, Klebsiella pneumoniae, Staphylococcus aureus, and Bacillus subtilis. The final total volume of medium in each well is […]. […] The resulting matrix allows testing of eight concentrations of each active and 64 combinations of actives in the ratios (of actives).
(§4) Controls (not shown) contain the medium with no biocide added.
(§5) Immediately after the microtiter plates are prepared, the optical density (OD) readings for each well is measured at 580 nm and the plates are then incubated at 37° C. for 24 hr. After the incubation period, the plates are gently agitated before OD580 values are collected. The OD580 values at T0 are subtracted from T24 values to determine the total amount of growth (or lack thereof) that occurs. These values are used to calculate the percent inhibition of growth caused by the presence of each biocide and each of the 64 combinations. A 90% inhibition of growth (I90) value is used as a threshold for calculating synergy index (SI) values with the following equation: Synergy Index=MDBMAL/CDBMAL+MB/CB
(§6) where • CDBMAL: Concentration of DBMAL required to inhibit at least 90% of bacterial growth when used alone • CB: Concentration of biocide (B) required to inhibit at least 90% of bacterial growth when used alone. • MDBMAL: Concentration of DBMAL required to inhibit at least 90% of bacterial growth when used in combination with biocide (B). • MB: Concentration of biocide (B) required to inhibit at least 90% of bacterial growth when used in combination with DBMAL The SI values are interpreted as follows: • SI<1: Synergistic combination • SI=1: Additive combination • SI>1: Antagonistic combination
(§7) In the Examples below, the amounts of biocides in the solution are measured in mg per liter of solution (mg/l). Since solution densities are approximately 1.00, the mg/1 measurement corresponds to weight and can be expressed as parts per million (ppm). Both units may therefore be used interchangeably in the Examples.

[2] = as above; format: cell-based; conditions: Example 3
From the text: as §1, §2, §3, §4, §5, §6, §7

[Cu] [Cu, copper]
I90 (concentration required for at least 90% inhibition of growth) [1]: 0.78 mg/L

[Ag] [Ag, silver]
I90 (concentration required to inhibit at least 90% of bacterial growth when used alone) ([1]; Example 1 Experiment 1): 0.063 mg/L | I90 (concentration required to inhibit at least 90% of bacterial growth when used alone) ([1]; Example 1 subsequent experiment (Experiment 2)): 0.125 ppm

NC(=O)C(Br)(Br)C(N)=O [DBMAL, 2,2-dibromomalonamide]
I90 (concentration required to inhibit at least 90% of bacterial growth when used alone) ([1]; Example 1 Experiment 1): 12.5 mg/L | I90 (concentration required for at least 90% inhibition of growth) [1]: 12.5 mg/L | inhibition at 0.2 µg/mL ([2]; DBMAL Alone 0.20 mg/l): 2% | inhibition at 0.39 µg/mL ([2]; DBMAL Alone 0.39 mg/l): 0% | inhibition at 0.78 µg/mL ([2]; DBMAL Alone 0.78 mg/l): 4% | inhibition at 1.56 µg/mL ([2]; DBMAL Alone 1.56 mg/l): 9% | inhibition at 3.13 µg/mL ([2]; DBMAL Alone 3.13 mg/l): 21% | inhibition at 6.25 µg/mL ([2]; DBMAL Alone 6.25 mg/l): 29% | inhibition at 12.5 µg/mL ([2]; DBMAL Alone 12.50 mg/l): 100% | inhibition at 25 µg/mL ([2]; DBMAL Alone 25.00 mg/l): 100%

[Zn] [Zn, zinc, reference compound]
% Inhibition of Growth ([1]; Zn Alone 19.5 mg/l): 19% | % Inhibition of Growth ([1]; Zn Alone 39.1 mg/l): 12% | % Inhibition of Growth ([1]; Zn Alone 78.1 mg/l): 18% | % Inhibition of Growth ([1]; Zn Alone 156.3 mg/l): 23% | % Inhibition of Growth ([1]; Zn Alone 312.5 mg/l): 33% | % Inhibition of Growth ([1]; Zn Alone 625.0 mg/l): 74% | % Inhibition of Growth ([1]; Zn Alone 1250.0 mg/l): 91% | % Inhibition of Growth ([1]; Zn Alone 2500.0 mg/l): 92%
